One test concerns the target T1, MAO-B (Rattus norvegicus, UniProt P19643).
T1 construct: the whole brain without cerebellum was dissected rapidly and frozen on dry ice; from tissue; host or cells: whole brain without cerebellum of orally dosed male Wistar rats, homogenate
T1 sequence (P19643 1-520): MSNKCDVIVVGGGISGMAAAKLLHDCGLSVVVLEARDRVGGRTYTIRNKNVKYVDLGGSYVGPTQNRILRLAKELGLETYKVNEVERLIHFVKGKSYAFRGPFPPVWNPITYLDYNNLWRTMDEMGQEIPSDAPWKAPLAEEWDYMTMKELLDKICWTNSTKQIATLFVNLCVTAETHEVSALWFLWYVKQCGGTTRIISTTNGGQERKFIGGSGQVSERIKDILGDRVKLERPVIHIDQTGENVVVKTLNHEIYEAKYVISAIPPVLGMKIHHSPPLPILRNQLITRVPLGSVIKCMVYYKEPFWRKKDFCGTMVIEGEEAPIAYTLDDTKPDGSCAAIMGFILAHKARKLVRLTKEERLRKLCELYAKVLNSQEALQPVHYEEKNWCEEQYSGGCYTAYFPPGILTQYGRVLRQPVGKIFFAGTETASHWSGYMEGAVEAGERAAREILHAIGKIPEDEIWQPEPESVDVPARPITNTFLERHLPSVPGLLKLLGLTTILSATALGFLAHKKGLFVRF
The test is described as follows: Ex vivo monoamine oxidase inhibition assay, Type B. The class given is in vivo. Particulars: po. The procedure:
(§1) The enzyme monoamine oxidase (MAO) exists in two catalytically distinguishable forms termed MAO-A and MAO-B. The ability of the compounds of the invention to inhibit MAO ex vivo in the rat was determined using a procedure adapted from the procedure set forth in The Journal of Pharmacology and Experimental Therapeutics, Vol. 248, No. 1, (1989), pp. 400-414.
(§2) The compound to be tested was administered to male Wistar rats orally. At specified times after administration the rats were decapitated and the whole brain without cerebellum was dissected rapidly and frozen on dry ice. The samples were stored at -80° C. until measurement of the MAO activity. After thawing, the tissues were homogenized in 5 volumes of 0.1 mol/l of potassium-phosphate buffer, pH 7.4, using all glass homogenisers. MAO activity was determined essentially as described by Wurtman and Axelrod. Biochem. Pharmacol. 12: 1439-1441, (1963).
(§3) The enzyme reaction was started by addition of 80 μl of the MAO-A substrate [^3 H]-5-HT (0.96 mCi/mmol, final amine concentration is 200 μM or of the MAO-B substrate [^14 C]PEA (0.192 mCi/mmol, final amine concentration is 200 μM and the incubation continued for 10 minutes at 37° C. Then, the reaction was stopped by addition of 200 μl of 2N HCl, and the deaminated metabolites were extracted by vigorous shaking for 10 minutes with 5 ml of diethylether (5-HT-extraction) or n-heptane (PEA-extraction). After centrifugation (1000×g; 30 sec) the water-phase was frozen in dry ice and the organic layer poured into plastic vials containing 5 ml of scintillation cocktail. Finally, the radioactivity was determined in a scintillation spectrometer. Reaction mixtures as described above but lacking the homogenate served as blanks.

The next test has as its target T2, MAO-A (Rattus norvegicus, UniProt P21396).
T2 construct: the whole brain without cerebellum was dissected rapidly and frozen on dry ice; from tissue; host or cells: whole brain without cerebellum of orally dosed male Wistar rats, homogenate
T2 sequence (P21396 1-526): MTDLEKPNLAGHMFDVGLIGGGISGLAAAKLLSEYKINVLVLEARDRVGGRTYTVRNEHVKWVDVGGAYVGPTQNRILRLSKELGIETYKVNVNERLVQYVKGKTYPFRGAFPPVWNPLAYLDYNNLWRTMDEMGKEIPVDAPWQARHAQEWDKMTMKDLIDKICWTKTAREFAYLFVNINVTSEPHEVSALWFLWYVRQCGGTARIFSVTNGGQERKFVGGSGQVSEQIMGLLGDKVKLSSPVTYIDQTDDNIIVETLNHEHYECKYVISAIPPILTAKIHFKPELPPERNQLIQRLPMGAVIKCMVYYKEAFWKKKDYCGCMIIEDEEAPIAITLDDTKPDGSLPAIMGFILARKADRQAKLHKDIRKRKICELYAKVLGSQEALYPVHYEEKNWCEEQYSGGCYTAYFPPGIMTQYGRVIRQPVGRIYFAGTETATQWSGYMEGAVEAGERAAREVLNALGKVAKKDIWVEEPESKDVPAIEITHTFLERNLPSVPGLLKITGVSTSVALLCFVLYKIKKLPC
Put plainly: Ex vivo monoamine oxidase inhibition assay, Type A. Type of test: in vivo. The following applies: po. The procedure: as §1, §2, §3

A further test deals with monoamine oxidase. The following applies: literature reference (2); cited from earlier work.
The target in the next test is T3, Brain AChE (Rattus norvegicus, UniProt P37136).
T3 construct: corpora striata dissected free, weighed and homogenized in 19 volumes; from tissue; host or cells: corpora striata of male Wistar rats, whole homogenate
T3 sequence (P37136 32-614): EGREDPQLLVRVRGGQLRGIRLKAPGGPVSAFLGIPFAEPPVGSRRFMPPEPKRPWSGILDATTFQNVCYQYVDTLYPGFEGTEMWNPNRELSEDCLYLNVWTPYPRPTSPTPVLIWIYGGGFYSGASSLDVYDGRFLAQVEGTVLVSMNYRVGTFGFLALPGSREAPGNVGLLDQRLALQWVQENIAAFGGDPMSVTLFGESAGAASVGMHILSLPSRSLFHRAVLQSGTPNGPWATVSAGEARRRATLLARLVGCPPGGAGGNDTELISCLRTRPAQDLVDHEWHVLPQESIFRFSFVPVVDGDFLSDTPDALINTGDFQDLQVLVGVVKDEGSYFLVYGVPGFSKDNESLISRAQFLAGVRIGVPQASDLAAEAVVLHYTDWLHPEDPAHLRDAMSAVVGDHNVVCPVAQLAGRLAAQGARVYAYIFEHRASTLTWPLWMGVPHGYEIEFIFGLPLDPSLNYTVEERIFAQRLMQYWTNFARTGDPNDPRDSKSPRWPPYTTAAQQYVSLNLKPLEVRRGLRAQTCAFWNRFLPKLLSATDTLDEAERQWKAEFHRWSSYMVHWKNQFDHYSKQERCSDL
The test is described as follows: In vitro inhibition of acetylcholinesterase activity in rat striatum. Type of test: biochemical. The procedure:
In Vitro Inhibition of Acetylcholinesterase Activity in Rat Striatum
The method described below was used in this invention for assaying cholinesterase activity. This is a modification of the method of Ellman et al., Biochem. Pharmacol. 7, 88 (1961).
4. A 2 mM stock solution of the test drug is made up in a suitable solvent and brought to volume with 0.5 mM DTNB (reagent 3).
Drugs are serially diluted (1:10) such that the final concentration (in cuvette) is 10^-4 M and screened for activity. If active, IC50 values are determined from the inhibitory activity of subsequent concentrations.
Male Wistar rats are decapitated, brains rapidly removed, corpora striata dissected free, weighed and homogenized in 19 volumes (approximately 7 mg protein/ml) of 0.05M phosphate buffer, pH 7.2 using a Potter-Elvehjem homogenizer. A 25 microliter aliquot of the homogenate is added to 1.0 milliter vehicle or various concentrations of the test drug and preincubated for 10 minutes at 37° C.
Enzyme activity is measured with the Beckman DU-50 spectrophotometer. This method can be used for IC50 determinations and for measuring kinetic constants.
Reagents are added to the blank and sample cuvettes as follows:
Blank values are determined for each run to control for non-enzymatic hydrolysis of substrate and these values are automatically subtracted by the kindata program available on kinetics soft-pac module. This program also calculates the rate of absorbance change for each cuvette.
Substrate concentration is 10 mM diluted 1:2 in assay yielding final concentration of 5 mM. DTNB concentration is 0.5 mM yielding 0.25 mM final concentration. [formula] IC50 values are calculated from log-probit analysis.

Setting [1] is: 50 mg/kg, p.o., 0.5 h, read-out: Ex vivo inhibition (%) of monoamine oxidase Type B.
Where [2] appears, read: 50 mg/kg, p.o., 1.0 h, read-out: Ex vivo inhibition (%) of monoamine oxidase Type B.
Where [3] appears, read: 50 mg/kg, p.o., 4.0 h, read-out: Ex vivo inhibition (%) of monoamine oxidase Type B.
Where [4] appears, read: 50 mg/kg, p.o., 24.0 h, read-out: Ex vivo inhibition (%) of monoamine oxidase Type B.
Setting [5] is: 50 mg/kg, p.o., 0.5 h, read-out: Ex vivo inhibition (%) of monoamine oxidase Type A.
Where [6] appears, read: 50 mg/kg, p.o., 1.0 h, read-out: Ex vivo inhibition (%) of monoamine oxidase Type A.
Where [7] appears, read: 50 mg/kg, p.o., 4.0 h, read-out: Ex vivo inhibition (%) of monoamine oxidase Type A.
The mark [8] stands for this setting: 50 mg/kg, p.o., 24.0 h, read-out: Ex vivo inhibition (%) of monoamine oxidase Type A.
[9] abbreviates: rat striatum homogenate, pH 7.2, read-out: Inhibitory Concentration IC50 Brain AChE.

Counter-ions that a name gives are not always drawn. Like-named read-outs stand apart in the source and are kept apart here.

In the case of `c1ccc2c(NCCN3CCOCC3)noc2c1` [N-[2-(4-Morpholinyl)ethyl]-1,2-benzisoxazol-3-amine], the inhibition at 50 mg/kg turned out to be 52% at MAO-B (setting [1]); 45% on MAO-B (setting [2]); 33% at MAO-B (setting [3]); 0% on MAO-B (setting [4]); 88% on MAO-A (setting [5]); 85% on MAO-A (setting [6]). Further, the inhibition at 50 mg/kg on MAO-A (setting [7]) was 68%; at MAO-A (setting [8]), 3.5%.

In the case of `C#CCN(C)C(C)Cc1ccccc1` (stereo not shown) [deprenyl], the “selectivity of monoamine oxidase inhibition (type A / type B)” value in the test on monoamine oxidase is given as “selective inhibitors of the type B enzyme”.

As for `C#CCN(C)CCCOc1ccc(Cl)cc1Cl` [Clorgyline], the “selectivity of monoamine oxidase inhibition (type A / type B)” value with monoamine oxidase is “selective inhibitor of the type A enzyme”.

Regarding `CN(C)C(=O)Oc1ccc2c(N(C)CCN3CCOCC3)noc2c1Br` [7-Bromo-3-[N-methyl, N,2-(4-morpholinyl)ethyl]amino-1,2-benzisoxazol-6-yl dimethylcarbamate], the IC50 against Brain AChE was found to be 2 µM.

In the case of `C#CCN(C)Cc1ccccc1` [pargyline], the “selectivity of monoamine oxidase inhibition (type A / type B)” value in the test with monoamine oxidase is reported as “selective inhibitors of the type B enzyme”.

With `CN(C)C(=O)Oc1ccc2c(N3CCN(c4ccncc4)CC3)noc2c1` [3-[1-(4-Pyridyl)piperazinyl]-1,2-benzisoxazol-6-yl dimethylcarbamate], the IC50 against Brain AChE came to 0.88 µM.

As to `N[C@@H]1C[C@H]1c1ccccc1` (relative stereo) [tranylcypromine], in the test with monoamine oxidase, the “selectivity of monoamine oxidase inhibition (type A / type B)” value is reported as “nonselective inhibitors”.

With `COc1ccc2c(N(C)CCC3CCN(Cc4ccccc4)CC3)noc2c1` [6-Methoxy-N-methyl-N-[2-[4-(1-phenylmethyl)piperdinyl]ethyl]-1,2-benzisoxazol-3-amine sesquihydrochloride], the IC50 on Brain AChE (setting [9]) came to 4 µM.

For the compound `CC(C)NNC(=O)c1ccncc1` [iproniazid], in the test with monoamine oxidase, the “selectivity of monoamine oxidase inhibition (type A / type B)” value is “nonselective inhibitors”.

In the case of `COc1ccc2c(N3CCN(c4ccncc4)CC3)noc2c1Br` [7-Bromo-6-methoxy-3-[1-(4-pyridyl)piperazinyl]-1,2-benzisoxazole], on Brain AChE (setting [9]), the IC50 came out at 14 µM.

Consider `CN(CCN1CCOCC1)c1noc2ccccc12` [N-methyI-N-[2-(4-morpholinyl)ethyl]-1,2-benzisoxazol-3-amine], for which the inhibition at 50 mg/kg on MAO-B (setting [1]) worked out at 32%; at MAO-B (setting [2]), 25%; on MAO-B (setting [3]), 36%; on MAO-B (setting [4]), 0%; at MAO-A (setting [5]) it was 78%; at MAO-A (setting [6]) it was 66%. The inhibition at 50 mg/kg on MAO-A (setting [7]) amounted to 76%; on MAO-A (setting [8]) it was 11%.

For `CNC(=O)Oc1ccc2c(N(C)CCN3CCOCC3)noc2c1` [3-[[2-(4-Morpholinyl)ethyl]methylamino]1,2-benzisoxazol-6-yl methylcarbamate], the inhibition at 50 mg/kg worked out at 19% on MAO-B (read-out: Ex vivo inhibition (%) of monoamine oxidase Type B, 50 mg/kg, p.o., 0.5 h); 19% at MAO-B (read-out: Ex vivo inhibition (%) of monoamine oxidase Type B, 50 mg/kg, p.o., 1.0 h); 28% at MAO-B (read-out: Ex vivo inhibition (%) of monoamine oxidase Type B, 50 mg/kg, p.o., 4.0 h); 12% at MAO-B (read-out: Ex vivo inhibition (%) of monoamine oxidase Type B, 50 mg/kg, p.o., 24.0 h); 26% on MAO-A (read-out: Ex vivo inhibition (%) of monoamine oxidase Type A, 50 mg/kg, p.o., 0.5 h); 29% on MAO-A (read-out: Ex vivo inhibition (%) of monoamine oxidase Type A, 50 mg/kg, p.o., 1.0 h). Besides, the inhibition at 50 mg/kg on MAO-A (read-out: Ex vivo inhibition (%) of monoamine oxidase Type A, 50 mg/kg, p.o., 4.0 h) was found to be 42%; on MAO-A (read-out: Ex vivo inhibition (%) of monoamine oxidase Type A, 50 mg/kg, p.o., 24.0 h) it was 14%. Also, the IC50 at Brain AChE was 13 µM.

The values above are taken from US5580982A, “Substituted 3-(aminoalkylamino)-1,2-benzisoxazoles and related compounds” (priority 1995, dated 1996).
